{"source": "patent US12527329B2", "about": "“Compositions and methods relating to insecticides” (priority 2019, dated 2026)", "key": {"[1]": {"tested_on": "pyrethroid-susceptible strain of Aedes aegypti (Orlando)", "type": "in vivo", "conditions": "topical; for KD50: 1-hr; for LD50: 24-hr", "description": "(§1) Aedes aegypti mosquitoes (susceptible Orlando strain and pyrethroid resistant Puerto Rico strain) were reared using standard protocols and provided by the United States Department of Agriculture—Center of Medical, Agricultural, and Veterinary Entomology (Gainesville, FL). Adult mosquitoes were anesthetized on ice, and the females treated with 0.2 μL of ethanolic solution using a repeating micro-applicator (Hamilton Co., Reno, NV). Ten females were used per concentration and taken from at least three different emerged cohorts. Knockdown (defined as inability to fly or orient in the upright direction) was recorded at 1 hr or other time points post application (depending on the experiment), whereas mortality (defined as no movement—ataxia) was recorded at 24 hr. […] Synergism studies were performed using the maximal sublethal dose of the fir needle oil in combination with varying concentrations of insecticide to calculate the LD50 value of the insecticide in combination with the natural synergist. SAS 9.4 software was used to calculate the LD50 values using a PROC PROBIT model with Abbott's correction to account for any control mortality. Synergist ratios were calculated as: KD50 or LD50 of compound alone÷KD50 or LD50 of compound+Fir needle oil."}, "[2]": {"tested_on": "pyrethroid-resistant Aedes aegypti strain (Puerto Rico)", "assay": "Topical application on the pyrethroid-resistant Puerto Rico strain: 24-hr LD50 and 1-hr KD50", "type": "in vivo", "design": "unit not given beside the values", "conditions": "alone or with FNO 5%", "description": "as §1"}, "[3]": {"tested_on": "Aedes aegypti mosquitoes", "type": "in vivo", "description": "This plant essential oil has been screened in combination with natural pyrethrins to assess the ability of this oil and these compositions to increase mortality and knockdown at 24-hr and 1-hr, respectively. […] As described herein, all compounds were dissolved and applied topically in ethanol or acetone.\nAn example of such synergism can be seen in FIG. 4. FIG. 4 is a graph showing synergism of insecticide (natural pyrethrins, NPs), piperonyl butoxide (PBO), and the combination thereof on mortality (24 hour) of Aedes aegypti mosquitoes. Mosquitoes were treated topically with 0.2 μL of different concentrations of insecticide+1% or 5% (w/v) piperonyl butoxide (PBO) in acetone. Mortality was recorded 24 hr after treatment.\nAnother example of such synergism is shown in FIG. 5, which is a graph showing antagonism of (natural pyrethrins, NPs), PBO, and the combination on knockdown (1 hour) of Aedes aegypti mosquitoes. Mosquitoes were treated with 0.2 μL different concentrations of insecticide+1% or 5% (w/v) PBO oil in acetone. Mortality was recorded 24 hr after exposure. FIG. 6 is an annotated version of FIG. 5 with arrows denoting statistically significant reduction in knockdown effect.\nFIG. 7 is a graph showing synergism of (natural pyrethrins, NPs), fir needle oil, and the combination thereof on knockdown (1 hour) and mortality (24 hour) of Aedes aegypti mosquitoes. Mosquitoes were treated with 0.2 μL of different concentrations of insecticide+1% or 5% (w/v) fir needle oil in acetone. Mortality was recorded 24 hr after exposure.\nas §1"}, "[4]": {"tested_on": "ethoxycoumarin de-ethylase (cytochrome P450 mono-oxygenase)", "assay": "Ethoxycoumarin de-ethylase activity assay on homogenates of topically treated mosquitoes", "type": "biochemical, Aedes aegypti", "conditions": "0.2 μL of 5% (w/v) topically, 4 hr before homogenization; ANOVA with Tukey's posttest, P<0.05 (FIG. 9)", "description": "Ethoxycoumarin de-ethylase activity was measured according the methods of Anderson and Zhu (2004) with minor modifications. In short, mosquitoes were treated with 0.2 μL of fir needle oil or delta-carene 5% w/v solution in ethanol and incubated for 4 hr prior to sacrificing treated insects. Approximately 100 insects were homogenized in 0.1 PBS solution, and homogenates centrifuged at 10,000×g for 20 minutes at 4° C. The resulting supernatant containing microsomes was then used as the enzyme preparation for the remainder of the assay. In each well, 20 μL of enzyme preparation was added to a final volume of 100 μL 0.1 PBS containing 250 μM reduced β-NADPH and 2 mM ethoxycoumarin. After adding the enzyme solution to the wells, plates were incubated at room temperature for 3 hr. After 3 hr incubation, 10 μL of 3.2 mM of oxidized glutathione was added to each well and 1 U of yeast glutathione reductase was added to each well. […] Fluorescence values were then read at 390/465 nm excitation/[…]."}, "[5]": {"conditions": "1-hr knockdown, topical, insecticide with or without 1% fir needle oil, ng dose per mg insect body weight"}}, "note": "Like-named read-outs stand apart in the source and are kept apart here.", "data": [{"smiles": "O=[N+]([O-])N=C1NCCN1Cc1ccc(Cl)nc1", "note": "[Imidacloprid, 1-(6-chloro-3-pyridylmethyl)-N-nitroimidazolidin-2-ylideneamine]", "values": [{"measurement": "KD50", "setting": "[1]; alone or with FNO 5%", "value": 3.7, "unit": "ng/mg"}, {"measurement": "LD50", "setting": "[1]; alone or with FNO 5%", "value": 1.1, "unit": "ng/mg"}, {"measurement": "KD50", "setting": "[2]", "value": 10.7}]}, {"smiles": "CN1COCN(Cc2cnc(Cl)s2)C1=N[N+](=O)[O-]", "note": "[Thiamethoxam, 3-((2-chloro-5-thiazolyl)methyl)-5-methyl-4-nitroiminotetrahydro-1,3,5-oxadiazine]", "values": [{"measurement": "KD50", "setting": "[1]; alone or with FNO 5%", "value": 17.2, "unit": "ng/mg"}, {"measurement": "LD50", "setting": "[1]; alone or with FNO 5%", "value": 3.4, "unit": "ng/mg"}]}, {"smiles": "CC1(C)[C@H](C(=O)O[C@H](C#N)c2cccc(Oc3ccccc3)c2)[C@@H]1C=C(Br)Br", "note": "[Deltamethrin, (S)-α-cyano-3-phenoxybenzyl (1R)-cis-3-(2,2-dibromovinyl)-2,2-dimethylcyclopropanecarboxylate]", "values": [{"measurement": "KD50", "setting": "[3]; [5]", "value": 0.003, "unit": "ng/mg"}]}, {"smiles": "CC1=CCC2C(C1)C2(C)C", "note": "(stereo not shown) [delta-carene, delta-3-carene]", "values": [{"measurement": "ethoxycoumarin de-ethylase (cytochrome P450 mono-oxygenase) activity versus vehicle-treated mosquitoes", "setting": "[4]", "value": "not increasing P450 activity"}]}, {"smiles": "CNC(=N[N+](=O)[O-])NCc1cnc(Cl)s1", "note": "[Clothianidin, 1-(2-Chloro-1,3-thiazol-5-ylmethyl)-3-methyl-2-nitroguanidine]", "values": [{"measurement": "KD50", "setting": "[3]; [5]", "value": 22, "unit": "ng/mg"}, {"measurement": "LD50", "setting": "[3]; 24-hr lethal dose, topical, insecticide with or without 1% fir needle oil, ng dose per mg insect body weight", "value": 4.5, "unit": "ng/mg"}, {"measurement": "KD50", "setting": "[1]; alone or with FNO 5%", "value": 22, "unit": "ng/mg"}, {"measurement": "KD50", "setting": "[1]; clothianidin alone or with 5% w/v FNO, delta-3-carene or bornyl acetate (Table 3)", "value": 22}, {"measurement": "LD50", "setting": "[1]; alone or with FNO 5%", "value": 4.5, "unit": "ng/mg"}, {"measurement": "KD50", "setting": "[2]", "value": 9.15}]}, {"smiles": "CC1(C)C(C=C(Cl)Cl)C1C(=O)OCc1cccc(Oc2ccccc2)c1", "note": "(racemic) [Permethrin, 3-phenoxybenzyl (1RS)-cis,trans-3-(2,2-dichlorovinyl)-2,2-dimethylcyclopropanecarboxylate]", "values": [{"measurement": "KD50", "setting": "[3]; in vivo", "value": 0.06, "unit": "ng/mg"}, {"measurement": "LD50", "setting": "[3]; in vivo", "value": 0.09, "unit": "ng/mg"}, {"measurement": "KD50", "setting": "[1]; alone or with FNO 5%", "value": 0.06, "unit": "ng/mg"}, {"measurement": "LD50", "setting": "[1]; alone or with FNO 5%", "value": 0.09, "unit": "ng/mg"}]}, {"smiles": "N#Cc1nn(-c2c(Cl)cc(C(F)(F)F)cc2Cl)c(N)c1[S+]([O-])C(F)(F)F", "note": "(stereo not shown) [Fipronil]", "values": [{"measurement": "KD50", "setting": "[1]; alone or with FNO 5%", "value": 10.7, "unit": "ng/mg"}, {"measurement": "LD50", "setting": "[1]; alone or with FNO 5%", "value": 0.1, "unit": "ng/mg"}]}]}
